In publication PMC9103942, “A Tumor-Homing Peptide Platform Enhances Drug Solubility, Improves Blood–Brain Barrier Permeability and Targets Glioblastoma” (Cancers, 2022):

What was measured:
[1] = Compound solubility in saline vs pure DMSO (LC-MS of supernatant); format: physicochemical; settings: room temperature 5 min, centrifuged, LC-MS EIC
Protocol: Dried powder of each compound was first resuspended in pure DMSO to form a 10 mm stock. Each stock was then diluted in saline (0.9% NaCl) to form an aqueous solution of 100 µm (final DMSO 1% (v/v)) or 1.3 mM (final DMSO 10% (v/v)) of each compound. The samples were incubated at room temperature for 5 min, then centrifuged at 10,000 rcf for 10 min to pellet any precipitates. 5 µL of supernatant was diluted into LC-MS vials containing 100 µL of 50:50 water:acetonitrile with 0.1% TFA additive and analyzed by LC-MS. The presence of soluble compound in each supernatant was determined by quantifying the ion count in the extracted ion chromatogram (EIC) using the MassHunter software. Solubility was measured by comparing the total EIC of the sample diluted in saline vs. in pure DMSO. Each sample was measured in duplicates.
To test the solubility of each compound in aqueous solution, a 10 mm stock of each compound in pure DMSO was diluted in saline solution (0.9% sodium chloride in water) to a final concentration of either 100 µm or 1.3 mm. The samples were incubated at room temperature for 5 min and centrifuged to remove any precipitate. The supernatant was analyzed by liquid chromatography–mass spectrometry (LC-MS). To quantify solubility, the extracted ion count from samples diluted in saline was normalized to samples diluted in pure DMSO.

[2] = Ex vivo serum stability assay, mouse serum; format: in vitro ADME; settings: 25% mouse serum, over 12 h
Protocol: Mouse serum was obtained from 8–10-week-old athymic female mice. Mice were euthanized by CO2 asphyxiation with secondary decapitation to ensure death. An incision was made from the neck to the abdomen and the thorax was cut to expose the heart. An amount of 100 µL of heparin was then injected directly into the right atrium to prevent the blood from clotting. A cardiac puncture was performed by piercing the left ventricle with a 21G needle to remove 400–1000 µL of blood. Blood from five mice was collected and combined in a 10-mL centrifuge tube and centrifuged for 5 min at 500 rcf at 4 °C. The top layer containing the serum (opaque) was removed and stored at −20 °C.
To test for serum stability, a 10 mM stock of BTP-7-CPT and Scr-7-CPT was prepared in DMSO. Each compound (1.4 µL) was transferred into a microcentrifuge tube containing 200 µL of PBS with 25% mouse serum, or in PBS alone, and incubated at 37 °C (final concentration 70 μm). […] Samples containing the peptide were eluted with 10 µL of 70% acetonitrile in water containing 0.1% TFA into an LC-MS vial containing 20 µL of water with 0.1% TFA additive and analyzed via LC-MS. The amount of intact compound was determined through quantifying the ion count in the extracted ion chromatogram (EIC) using the MassHunter software. […]

[3] = biological target: T1, recombinant dg-Bcan protein (Homo sapiens, UniProt Q96GW7); experiment: Octet binding kinetic analysis (steady state) to recombinant dg-Bcan; settings: one site specific binding fit, Octet RED
T1 construct: purchased R&D Systems 4009-BC-050
T1 sequence (Q96GW7 23-911): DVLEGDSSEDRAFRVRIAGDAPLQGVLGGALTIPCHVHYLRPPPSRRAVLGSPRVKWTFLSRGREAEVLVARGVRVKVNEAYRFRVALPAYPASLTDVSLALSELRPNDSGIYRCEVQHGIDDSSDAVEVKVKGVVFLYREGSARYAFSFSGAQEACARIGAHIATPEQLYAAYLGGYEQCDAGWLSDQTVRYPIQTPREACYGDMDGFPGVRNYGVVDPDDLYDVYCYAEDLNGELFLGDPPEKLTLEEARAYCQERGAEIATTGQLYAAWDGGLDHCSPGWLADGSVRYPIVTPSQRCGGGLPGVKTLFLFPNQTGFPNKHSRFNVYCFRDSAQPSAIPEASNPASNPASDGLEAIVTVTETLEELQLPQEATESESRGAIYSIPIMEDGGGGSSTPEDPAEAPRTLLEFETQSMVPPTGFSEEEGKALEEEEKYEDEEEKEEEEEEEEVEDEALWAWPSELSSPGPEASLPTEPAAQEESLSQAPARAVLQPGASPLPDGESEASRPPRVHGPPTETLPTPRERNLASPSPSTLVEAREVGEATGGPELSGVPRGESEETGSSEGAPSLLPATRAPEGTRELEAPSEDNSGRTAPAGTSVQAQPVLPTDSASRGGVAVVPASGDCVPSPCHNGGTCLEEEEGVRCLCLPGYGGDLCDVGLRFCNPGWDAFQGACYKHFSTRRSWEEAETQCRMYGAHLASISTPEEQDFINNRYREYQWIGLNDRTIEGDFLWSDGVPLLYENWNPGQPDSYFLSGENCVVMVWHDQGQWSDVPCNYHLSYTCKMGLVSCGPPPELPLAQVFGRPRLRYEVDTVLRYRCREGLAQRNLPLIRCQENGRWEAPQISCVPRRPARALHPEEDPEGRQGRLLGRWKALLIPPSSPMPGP
Protocol: Figure 3 Cytotoxicity of BTP-7-CPT. (a) Western blot showing expression of dg-Bcan in patient-derived GBM-X6 cells, as well as in Bcan-overexpressing HEK cells (HEK-Bcan). (b) Binding kinetics analysis (steady-state) of BTP-7-CPT (red) and unmodified CPT (blue) to recombinant dg-Bcan protein using the ForteBio Octet system. Rmax (maximal response in response unit) and KD (dissociation constant) were calculated using a non-linear regression (one site specific binding) fit using the Graphpad Prism software. (c) Luminescent cell viability (CellTiter-Glo) of GBM-X6 cells treated with BTP-7-CPT (nwells = 3) for 72 h. (d) Luminescent cell viability (CellTiter-Glo) of GS401 recurrent GBM cells treated with BTP-7-CPT (nwells = 3) for 72 h. All IC50 values were measured through the non-linear ‘log(inhibitor) vs. response—variable slope (four parameters)’ fit. […] Statistical significance was calculated using a two-way ANOVA, Sidak’s multiple comparisons test (* p < 0.05, *** p < 0.001, **** p < 0.0001). […]
Infrared spectroscopy (IR). Infrared spectra (IR) were recorded on a Bruker Alpha II FTIR. […]
Then, biosensors were exposed to the analyte (peptide) in working buffer (ranging between 0– 10 µM BTP) for 300 s during the ‘association’ step. […] Binding affinity of each peptide was assessed through steady state analysis, where the response unit was plotted over peptide concentration. […]

[4] = design: method as in PMID 33997269; settings: cited from earlier work
[5] = Serum stability, human serum; format: in vitro ADME; settings: 25% human serum; for half-life at 70 µM: human, LC-MS, normalized to EIC at t = 0

Row | Structure (SMILES) | soluble compound present in saline relative to in pure DMSO ([1]; 1.3 mm in saline (0.9% NaCl), 10% DMSO) | soluble compound present in saline relative to in pure DMSO ([1]; 100 µm in saline (0.9% NaCl), 1% DMSO) [%] | stability in mouse serum (detectable compound vs PBS) [2] | KD (dissociation constant) [3] | stability in mouse serum [4] | remaining at 24 h ([5]; after 24 h of incubation, read-out: peptide still intact) [%] | half-life at 70 µM [5] [h]
1 | CC[C@@]1(O)C(=O)OCc2c1cc1n(c2=O)Cc2cc3ccccc3nc2-1 [CPT, camptothecin] | practically undetectable | 30 | no decline in detectable compound over 12 h | did not exhibit any affinity |  |  | 
2 | CC(C)[C@@H](NC(=O)[C@@H](Cc1c[nH]cn1)NC(=O)CNC(=O)[C@@H](Cc1c[nH]c2ccccc12)NC(=O)[C@@H](CCCCN)NC(=O)[C@H](N)[C@H](C)O)C(=O)N[C@H](CC(N)=O)C(=O)N[C@H](CCCCN)C(=O)NCCCCCC(N)=O [BTP-7-X] |  |  |  |  | stable in mouse serum | ~40 | 4.4
3 | CC(C)[C@@H](NC(=O)[C@@H](Cc1c[nH]cn1)NC(=O)CNC(=O)[C@@H](Cc1c[nH]c2ccccc12)NC(=O)[C@@H](CCCCN)NC(=O)[C@H](N)[C@H](C)O)C(=O)N[C@H](CC(N)=O)C(=O)N[C@H](CCCCN)C(=O)NCCCCCC(=O)N[C@@H](CS)C(N)=O [BTP-7-X-Cys] |  |  |  |  |  |  | 0.16
